Measured values as given in patent US20210163308A1, “COMPOSITIONS AND METHODS FOR THE MODULATION OF CYTOKINES” (GALLEON LABS LLC, priority 2018, published 2021).
Where a SMILES comes first, the peptide text is derived from it.

How the values were obtained:
[1] = system: primary human cells (3C, 4H, LPS, SAg, BT, BF4T, BE3C, CASM3C, HDF3CGF, KF3CT, MyoF, /Mphg systems); experiment: Study CSM001-01-b: biomarker readouts in primary human cell systems, compounds in DMSO; format: cell-based
Method: (§1) Profiling was performed using the following processes:
(§2) All test compounds were dissolved in dimethyl sulfoxide (DMSO).

[2] = system: primary human cells (3C, 4H, LPS, SAg, BT, BF4T, BE3C, CASM3C, HDF3CGF, KF3CT, MyoF, /Mphg systems); experiment: Study CSM002-01-b: biomarker readouts in primary human cell systems, compounds in PBS; format: cell-based; conditions: for TF / TM: hemostasis-related activity
Method: Profiling was performed using the following processes: […]

[3] = system: primary human cells; experiment: Study CSM001-01-b: overt cytotoxicity (SRB, Alamar Blue); format: cell-based; conditions: DMSO, >50% reduction in cellular protein levels (SRB) and/or PBMC viability
Method: An annotated assay profile was prepared for each test agent. Biomarker readouts are annotated when two or more consecutive concentrations are changed in the same direction, relative to the vehicle control, outside of the significance envelope and with an effect size of at least 10% (more than 0.05 log ratio units). Biomarker activities are annotated as “modulated” when they are increased in some system(s) and decreased in other system(s). If applicable, a benchmark overlay was performed at the top non-cytotoxic concentration. Results of a similarity search (all test agents) and clustering (at least three test agents) were determined. […] A table of overtly cytotoxic test agents was also prepared which are test agents with a >50% reduction in cellular protein levels (sulforhodamine B, SRB) in one or more systems; and/or >50% reduction in PBMC viability. […]
Alamar Blue assays were used to determine the viability of non-adherent PBMCs in the assay systems, and are based on the conversion of resazurin to resorufin via the reduction reactions of metabolically active cells. […] Upon entering cells, resazurin is reduced to resorufin which produces very bright red fluorescence. Viable cells continuously convert resazurin to resorufin, thereby generating a quantitative measure of viability and cytotoxicity. The amount of fluorescence produced is proportional to the number of living cells. […]

[4] = system: primary human cells (HDFSAg, HDF3CGF, KF3CT, HDFLPS systems); experiment: Study CSM003-01-b: biomarker readouts in primary human cell systems, compounds in PBS; conditions: for pattern of immune responses in HDFSAg: HDFSAg system
Method: The following compounds were screened in the assay system at the noted concentrations to test for anti-proliferative, inflammation-related, immunomodulatory, tissue remodeling and hemostasis-related activities at the noted concentrations (Table 4). All test compounds were dissolved in phosphate buffered saline (PBS).
(§4) The following primary human cells were used as test systems: HDFSAg (dermal fibroblasts), HDF3CGF (dermal fibroblasts); KF3CT (keratinocytes+dermal fibroblasts) and HDFLPS (dermal fibroblasts+peripheral blood mononuclear cells).

[5] = system: endothelial cells, T cells, coronary artery smooth muscle cells and fibroblasts; experiment: Study CSM002-01-b: anti-proliferative activity; format: cell-based, human; conditions: PBS
[6] = system: endothelial cells, T cells, B cells, coronary artery smooth muscle cells and fibroblasts; experiment: Study CSM001-01-b: anti-proliferative activity; format: cell-based, human; conditions: DMSO
Method: as §2

[7] = system: fibroblasts; experiment: Study CSM003-01-b: anti-proliferative activity; format: cell-based, human; conditions: PBS, anhydrous
Method: All test compounds were dissolved in phosphate buffered saline (PBS).
as §4

[8] = system: primary human cells; experiment: Aspartame second activity profile (FIG. 47): biomarker readouts; format: cell-based
Method: as §1
(§3) FIG. 47 provides a second activity profile of aspartame. The key activities of aspartame include anti-proliferative to B cells (grey arrow); inflammation-related activities: decreased sTNFα and IL1α; increased MCP-1 and VCAM-1; immunomodulatory activities: increased sIL-17A, sIL-17F, sIL-6, and CD40; and tissue remodeling activities: decreased MMP9; increased MMP3, αSMA, and Col-I.

[9] = system: primary human cells; experiment: Aspartame first activity profile (FIG. 46): biomarker readouts; format: cell-based
Method: as §1
FIG. 46 provides a first activity profile of aspartame. The key activities of aspartame include inflammation-related activities: decreased MCP-1 and SAA; increased IL-8, IL-1α and VCAM-1; immunomodulatory activities: decreased sIL-2; increased sIgG and sIL-6; modulated CD69; and tissue remodeling activities: decreased MMP-9; increased Collagen-I and tPA; modulated PAI-I.

[10] = system: B cells; experiment: Aspartame second activity profile (FIG. 47): anti-proliferative activity; format: cell-based, human
Method: as §1, §3

CC(=O)N[C@@H](CS)C(=O)O [N-acetyl-L-cysteine]
CD40 ([1]; immunomodulatory activity): decreased
sIL-17A ([1]; immunomodulatory activity): decreased
Eotaxin-3 ([1]; inflammation-related activity): decreased
IL-6 ([1]; inflammation-related activity): increased
IL-8 ([1]; inflammation-related activity): modulated
IP-10 ([1]; inflammation-related activity): decreased
MIG ([1]; inflammation-related activity): decreased
sTNFα ([1]; inflammation-related activity): decreased
Collagen-I ([1]; tissue remodeling activity): increased
EGFR ([1]; tissue remodeling activity): decreased
Keratin 8/18 ([1]; tissue remodeling activity): increased
MMP-1 ([1]; tissue remodeling activity): increased
MMP-3 ([1]; tissue remodeling activity): increased
MMP-9 ([1]; tissue remodeling activity): modulated
PAI-I ([1]; tissue remodeling activity): increased
TIMP-I ([1]; tissue remodeling activity): increased
tPA ([1]; tissue remodeling activity): increased
uPAR ([1]; tissue remodeling activity): increased
Esel ([2]; inflammation-related activity): decreased
IL1α ([2]; inflammation-related activity): decreased
IL-6 ([2]; inflammation-related activity): decreased
IL-8 ([2]; inflammation-related activity): decreased
IP-10 ([2]; inflammation-related activity): decreased
ITAC ([2]; inflammation-related activity): decreased
sTNFα ([2]; inflammation-related activity): decreased
Col-I ([2]; tissue remodeling activity): increased
EGFR ([2]; tissue remodeling activity): decreased
MMP-3 ([2]; tissue remodeling activity): increased
tPA ([2]; tissue remodeling activity): modulated
αSMA ([2]; tissue remodeling activity): increased
overt cytotoxicity [3]: overtly toxic in multiple systems at the top two concentrations tested

O.O.O.O.O.O.[Cl-].[Cl-].[Sr+2] [Strontium chloride hexahydrate]
pattern of immune responses in HDFSAg [4]: enhanced immune responses
sIL-6 ([4]; immunomodulatory activity): increased
sIL-10 ([4]; immunomodulatory activity): increased
sIL-17A ([4]; immunomodulatory activity): increased
sIL-17F ([4]; immunomodulatory activity): increased

O=[N+]([O-])[O-].O=[N+]([O-])[O-].[Sr+2] [Strontium nitrate, Strontium Nitrate]
TF ([1]; hemostasis-related activity): increased
TM ([1]; hemostasis-related activity): increased
HLA-DR ([1]; immunomodulatory activity): decreased
M-CSF ([1]; immunomodulatory activity): increased
sIL-6 ([1]; immunomodulatory activity): decreased
sIL-17A ([1]; immunomodulatory activity): decreased
sIL-17F ([1]; immunomodulatory activity): decreased
sIgG ([1]; immunomodulatory activity): decreased
Eotaxin-3 ([1]; inflammation-related activity): decreased
I-TAC ([1]; inflammation-related activity): decreased
IL-1α ([1]; inflammation-related activity): decreased
IL-8 ([1]; inflammation-related activity): decreased
IP-10 ([1]; inflammation-related activity): decreased
MCP-1 ([1]; inflammation-related activity): decreased
SAA ([1]; inflammation-related activity): decreased
VCAM-1 ([1]; inflammation-related activity): decreased
sPGE2 ([1]; inflammation-related activity): increased
sTNFα ([1]; inflammation-related activity): decreased
Keratin 8/18 ([1]; tissue remodeling activity): increased
MMP-1 ([1]; tissue remodeling activity): decreased
MMP-3 ([1]; tissue remodeling activity): increased
MMP-9 ([1]; tissue remodeling activity): decreased
PAI-I ([1]; tissue remodeling activity): decreased
TIMP-2 ([1]; tissue remodeling activity): increased
uPAR ([1]; tissue remodeling activity): decreased
pattern of immune responses in HDFSAg [4]: enhanced immune responses
sIL-2 ([4]; immunomodulatory activity): increased
sIL-6 ([4]; immunomodulatory activity): increased
sIL-10 ([4]; immunomodulatory activity): increased
MCP-1 ([4]; inflammation-related activity): decreased
proliferation of coronary artery smooth muscle cells [5]: anti-proliferative
TF [2]: decreased
TM [2]: increased
CD40 ([2]; immunomodulatory activity): increased
M-CSF ([2]; immunomodulatory activity): decreased
ICAM-1 ([2]; inflammation-related activity): increased
IL1α ([2]; inflammation-related activity): modulated
IP-10 ([2]; inflammation-related activity): decreased
MIP-1 ([2]; inflammation-related activity): decreased
VCAM-1 ([2]; inflammation-related activity): increased
sTNFα ([2]; inflammation-related activity): decreased
Ker 8/18 ([2]; tissue remodeling activity): increased
MMP-1 ([2]; tissue remodeling activity): increased
MMP-9 ([2]; tissue remodeling activity): increased
tPA ([2]; tissue remodeling activity): increased
uPAR ([2]; tissue remodeling activity): increased
proliferation of B cells [6]: anti-proliferative
proliferation of T cells [6]: anti-proliferative
proliferation of coronary artery smooth muscle cells [6]: anti-proliferative
proliferation of endothelial cells [6]: anti-proliferative
proliferation of fibroblasts [6]: anti-proliferative
proliferation of fibroblasts [7]: anti-proliferative to fibroblasts at the top concentration only

COC(=O)[C@H](Cc1ccccc1)NC(=O)[C@@H](N)CC(=O)O [aspartame] (H-Asp-Phe-OMe)
CD40 ([8]; immunomodulatory activity): increased
sIL-6 ([8]; immunomodulatory activity): increased
sIL-17A ([8]; immunomodulatory activity): increased
sIL-17F ([8]; immunomodulatory activity): increased
IL1α ([8]; inflammation-related activity): decreased
MCP-1 ([8]; inflammation-related activity): increased
VCAM-1 ([8]; inflammation-related activity): increased
sTNFα ([8]; inflammation-related activity): decreased
Col-I ([8]; tissue remodeling activity): increased
MMP3 ([8]; tissue remodeling activity): increased
MMP9 ([8]; tissue remodeling activity): decreased
αSMA ([8]; tissue remodeling activity): increased
CD69 ([9]; immunomodulatory activity): modulated
sIL-2 ([9]; immunomodulatory activity): decreased
sIL-6 ([9]; immunomodulatory activity): increased
sIgG ([9]; immunomodulatory activity): increased
IL-1α ([9]; inflammation-related activity): increased
IL-8 ([9]; inflammation-related activity): increased
MCP-1 ([9]; inflammation-related activity): decreased
SAA ([9]; inflammation-related activity): decreased
VCAM-1 ([9]; inflammation-related activity): increased
Collagen-I ([9]; tissue remodeling activity): increased
MMP-9 ([9]; tissue remodeling activity): decreased
PAI-I ([9]; tissue remodeling activity): modulated
tPA ([9]; tissue remodeling activity): increased
proliferation of B cells [10]: anti-proliferative

CC(O)CC(=O)O (stereo not drawn) [beta hydroxybutyric acid]
M-CSF ([1]; immunomodulatory activity): increased
sIgG ([1]; immunomodulatory activity): decreased
ICAM-1 ([1]; inflammation-related activity): increased
IL-1α ([1]; inflammation-related activity): increased
IL-8 ([1]; inflammation-related activity): decreased
MIG ([1]; inflammation-related activity): decreased
VCAM-1 ([1]; inflammation-related activity): decreased
Collagen-I ([1]; tissue remodeling activity): increased
EGFR ([1]; tissue remodeling activity): increased
MMP-9 ([1]; tissue remodeling activity): modulated
PAI-I ([1]; tissue remodeling activity): modulated
tPA ([1]; tissue remodeling activity): increased
uPA ([1]; tissue remodeling activity): increased
proliferation of T cells [5]: anti-proliferative
proliferation of coronary artery smooth muscle cells [5]: anti-proliferative
proliferation of endothelial cells [5]: anti-proliferative
TF [2]: increased
TM [2]: increased
CD40 ([2]; immunomodulatory activity): increased
CD69 ([2]; immunomodulatory activity): increased
M-CSF ([2]; immunomodulatory activity): increased
sIL-6 ([2]; immunomodulatory activity): increased
IL1α ([2]; inflammation-related activity): decreased
IL-8 ([2]; inflammation-related activity): decreased
MCP-1 ([2]; inflammation-related activity): increased
sTNFα ([2]; inflammation-related activity): decreased
Col-I ([2]; tissue remodeling activity): increased
MMP-3 ([2]; tissue remodeling activity): increased
MMP-9 ([2]; tissue remodeling activity): decreased
αSMA ([2]; tissue remodeling activity): increased
overt cytotoxicity [3]: overtly toxic in multiple systems at the top concentration tested
proliferation of T cells [6]: anti-proliferative
proliferation of endothelial cells [6]: anti-proliferative

O=C(O)c1cc(O)c(O)c(O)c1 [gallic acid, 3,4,5-trihydroxy benzoic acid]
M-CSF ([1]; immunomodulatory activity): decreased
sIL-2 ([1]; immunomodulatory activity): decreased
sIL-10 ([1]; immunomodulatory activity): increased
sIL-17A ([1]; immunomodulatory activity): decreased
Eotaxin-3 ([1]; inflammation-related activity): decreased
I-TAC ([1]; inflammation-related activity): decreased
ICAM-1 ([1]; inflammation-related activity): decreased
IL-1α ([1]; inflammation-related activity): decreased
IL-8 ([1]; inflammation-related activity): increased
IP-10 ([1]; inflammation-related activity): decreased
MIG ([1]; inflammation-related activity): decreased
MIP-1 ([1]; inflammation-related activity): increased
SAA ([1]; inflammation-related activity): decreased
VCAM-1 ([1]; inflammation-related activity): modulated
sTNFα ([1]; inflammation-related activity): decreased
Collagen-III ([1]; tissue remodeling activity): increased
Collagen-IV ([1]; tissue remodeling activity): increased
EGFR ([1]; tissue remodeling activity): increased
Keratin 8/18 ([1]; tissue remodeling activity): decreased
MMP-1 ([1]; tissue remodeling activity): increased
MMP-3 ([1]; tissue remodeling activity): increased
MMP-9 ([1]; tissue remodeling activity): decreased
PAI-I ([1]; tissue remodeling activity): modulated
bFGF ([1]; tissue remodeling activity): decreased
tPA ([1]; tissue remodeling activity): increased
α-SMA ([1]; tissue remodeling activity): increased
proliferation of T cells [5]: anti-proliferative
proliferation of coronary artery smooth muscle cells [5]: anti-proliferative
proliferation of endothelial cells [5]: anti-proliferative
proliferation of fibroblasts [5]: anti-proliferative
M-CSF ([2]; immunomodulatory activity): modulated
IL-8 ([2]; inflammation-related activity): increased
IP-10 ([2]; inflammation-related activity): increased
ITAC ([2]; inflammation-related activity): decreased
VCAM-1 ([2]; inflammation-related activity): decreased
sPGE2 ([2]; inflammation-related activity): increased
sTNFα ([2]; inflammation-related activity): decreased
MMP-9 ([2]; tissue remodeling activity): increased
tPA ([2]; tissue remodeling activity): increased
uPA ([2]; tissue remodeling activity): increased
αSMA ([2]; tissue remodeling activity): increased
proliferation of T cells [6]: antiproliferative
proliferation of coronary artery smooth muscle cells [6]: antiproliferative
proliferation of endothelial cells [6]: antiproliferative
proliferation of fibroblasts [6]: antiproliferative
